# Experiments:
# [1] = Mouse body weight after afatinib and EV co-treatment; assay type: in vivo; details: daily oral afatinib with 72-hourly peri-tumoural EV injection
# Source text: Arrow indicates commencement of daily oral afatinib administration with 72-hourly peri-tumoural extracellular vesicle (EV) injection. This confirms that the therapy delivered to the mice in FIG. 25 had minimal side effects/toxicity during the course of the experiment.
# [2] = system: NCC-HN1 cells; experiment: Cell proliferation assay (CellTitre-Glo), TKI and EV co-treatment, NCC-HN1; assay type: cell-based, human
# Protocol: Extracellular vesicle (EV) collection and isolation were carried out as previously described*. Briefly, cells were grown in T-175 tissue culture flasks with conditioning medium (NCM). After 72 hours incubation, the NCM was collected and spun down at 1,200 rpm for 10 minutes to remove cell debris. The supernatant was then filtered through a 0.22 um filter (PES) and the filtrate was loaded into Amicon® Ultra-15 Centrifugal Filter Unit (Merck Millipore, Kenilworth, NJ). The medium was concentrated and subjected to a final wash with 1×PBS before reconstituting to 1/60 of the original volume. To reduce extracellular vesicle batch variation, every five extracellular vesicle batches were pooled into a single batch for analysis and treatment. *Reference: Rodrigues-Junior, D. M. et al. Circulating extracellular vesicle-associated TGFβ3 modulates response to cytotoxic therapy in head and neck squamous cell carcinoma. Carcinogenesis 1-13 (2019). doi:10.1093/carcin/bgz148
# Cells were seeded in 100 μl complete growth medium at a density of 1,000-3,000 cells/well in 96-well tissue culture plates. Cells were washed with 1×PBS to remove remaining medium residue prior treatment. […] Plates were incubated for 72 hours at 37° C. after which cell viability was assessed using CellTitre-Glo® Luminescent Assay according to the manufacturer's protocol (Promega, Madison, WI).
# [3] = system: NCC-HN1, NCC-HN120M and NCC-HN182M cells; experiment: Cell proliferation assay and IC50 determination, TKI and EV co-treatment, HNSCC cell line panel; assay type: cell-based, human
# Protocol: To test the response of head and neck squamous cell carcinomas (HNSCC) cell lines to tyrosine kinase inhibitors (TKIs) in the presence of EGFR exosomal isoform D, three primary cell lines, namely NCC-HN1, NCC-HN120M and NCC-HN182M, were used. […] NCC-HN1, NCC-HN120M and NCC-HN182M cells were treated with eight tyrosine kinase inhibitors, each individually, in the presence of exosome (EV) derived from NCC-HN19 and NCC-HN137P cells.
# Cells were seeded in 100 μl complete growth medium at a density of 1,000-3,000 cells/well in 96-well tissue culture plates. […] Plates were incubated for 72 hours at 37° C. after which cell viability was assessed using CellTitre-Glo® Luminescent Assay according to the manufacturer's protocol (Promega, Madison, WI).
compound,measurement,setting,value
CN(C)C/C=C/C(=O)Nc1cc2c(Nc3ccc(F)c(Cl)c3)ncnc2cc1O[C@H]1CCOC1 [afatinib],mouse body weight,[1],no changes in mouse body weight
O=C1NC(=NS(=O)(=O)c2cccc3ccccc23)S/C1=C\c1ccc(Br)cc1 [PitStop2],effect on the sensitising effect of isoform D containing EVs,[2]; 1 μM PS2 with 293T pBob-IsoD EV,reduces the sensitising effect of isoform D containing EVs
COc1cc2ncnc(Nc3ccc(F)c(Cl)c3)c2cc1OCCCN1CCOCC1 [gefitinib],response of cells to TKI without exosome,[2]; no exosome treatment,normally resistant
COc1cc2ncnc(Nc3ccc(F)c(Cl)c3)c2cc1NC(=O)/C=C/CN1CCCCC1 [dacomitinib],sensitivity of HNSCC cells to the TKI on co-treatment with exosomes containing overexpressed EGFR isoform D,"[3]; EV from 293T, FIG. 11H (NCC-HN1 and NCC-HN120M)",sensitized
same,sensitivity of TKI-resistant cells to the TKI on application of EVs from sensitive cells,"[3]; EV from HN19 and HN137P applied to HN1, HN120M, HN182M",sensitises these resistant cells

# From US12642838B2, “Method of modulating sensitivity to tyrosine kinase inhibitor” (SINGAPORE HEALTH SERVICES PTE LTD, priority 2020, dated 2026)
